Experimental data from patent US6875865B1, “Selected derivatives of K-252a” (Cephalon, Inc., priority 1996, dated 2005).

Columns and labels:
[1] = test system: dissociated spinal cord cultures; assay: Spinal Cord ChAT Activity Assay; type: cell-based, rat
Description: The effect of selected ring substituted K-252a derivatives on CHAT activity was assayed in dissociated spinal cord cultures prepared from fetal rats using the procedure described in U.S. Pat. No. 5,461,146, Columns 26 and 27, Examples 6 and 7. ChAT is the enzyme that catalyzes the synthesis of the neurotransmitter acetylcholine, and it is a specific biochemical marker for cholinergic neurons. In the spinal cord, the large majority of cholinergic neurons are motor neurons. Assay of this enzyme may thus be used as an indication of the effects of a factor, or actors, on the survival of cholinergic neurons and/or regulation of this enzyme.
(§1) Compounds which increased ChAT activity at least 120% of the control activity are considered active.

[2] = test system: basal forebrain cultures; assay: Basal Forebrain ChAT Activity Assay; type: cell-based, rat; settings: day six
Description: Compounds of the invention were assessed for their ability to promote survival and increase in ChAT activity in basal forebrain cultures. ChAT activity in these cultures is a biochemical marker for the cholinergic neurons (less than 5% of the cells in culture), which represent the major cholinergic input to the hippocampal formation, olfactory nucleus, interpeduncular nucleus, cortex, amygdala, and parts of the thalamus. […] The basal forebrain was dissected from embryonic day 17 or 18 rat embryos and the cells were […] with Dispase™ (neutral protease, Collaborative Research). Neurons were plated at 5×10^4 cells/well (1.5×10^5 cells/cm^2) in wells of 96-well plates previously coated with […] and laminin. Cells were cultured in serum-free N2 medium containing 0.05% bovine serum albumin (BSA) (Bottenetein et al., supra) at 37° in a humidified atmosphere of 5% CO2/95% air. ChAT activity was measured in vitro at day six, using a modification of the Formum procedure (supra) according to McManaman et al. (supra) and Glicksman et al. (J. Neurochem. 61:210-221, 1993).
as §1

[3] = test system: protein kinase C (PKC); settings: reported in the literature; cited from earlier work
[4] = concentration not given, tested between 10 nM and 500 nM, at least 120% of control = active
[5] = concentration not given, at least 120% of control = active

Compound | ChAT Activity maximum efficacy % of Control (conc) ([1]; maximum efficacy at 300 nM) | ChAT Activity maximum efficacy % of Control (conc) ([2]; maximum efficacy at 250 nM) | other results
CCOC(=O)C=Cc1ccc2c(c1)c1c3c(c4c5ccccc5n5c4c1n2C1(C)OC5CC1(O)C(=O)OC)C(=O)NC3 (stereo not shown) [Compound 12] | 269 (300 nM) % of Control | – | ChAT Activity maximum efficacy % of Control (conc) ([2]; maximum efficacy at 500 nM): 184 (500 nM) % of Control
COC(=O)C1(O)CC2OC1(C)n1c3ccc(C=Cc4ccccn4)cc3c3c4c(c5c6ccccc6n2c5c31)C(=O)NC4 (stereo not shown) [Compound 13] | – | – | ChAT Activity maximum efficacy % of Control (conc) ([1]; maximum efficacy at 30 nM): 271 (30 nM) % of Control; ChAT Activity maximum efficacy % of Control (conc) ([2]; maximum efficacy at 100 nM): 167 (100 nM) % of Control
COC(=O)C1(O)CC2OC1(C)n1c3ccc(CCc4ccccn4)cc3c3c4c(c5c6ccccc6n2c5c31)C(=O)NC4 (stereo not shown) [Compound 14] | 282 (300 nM) % of Control | – | ChAT Activity maximum efficacy % of Control (conc) ([2]; maximum efficacy at 500 nM): 229 (500 nM) % of Control
CCSCC(=O)c1ccc2c(c1)c1c3c(c4c5ccccc5n5c4c1n2C1(C)OC5CC1(O)C(=O)OC)C(=O)NC3 (stereo not shown) [Compound 41] | 204 (300 nM) % of Control | – | ChAT Activity maximum efficacy % of Control (conc) [2, 4]: <120 % of Control
COC(=O)C1(O)CC2OC1(C)n1c3ccc(C(=O)CSc4nnnn4C)cc3c3c4c(c5c6cc(C(=O)CSc7nnnn7C)ccc6n2c5c31)C(=O)NC4 (stereo not shown) [Compound 52] | – | – | ChAT Activity maximum efficacy % of Control (conc) [1, 5]: <120 % of Control; ChAT Activity maximum efficacy % of Control (conc) [2, 4]: <120 % of Control
COCCC(=O)c1ccc2c(c1)c1c3c(c4c5cc(C(=O)CCOC)ccc5n5c4c1n2C1CC(O)(C(=O)OC)C5(C)O1)CNC3=O (stereo not shown) [Compound 54] | – | 167 (250 nM) % of Control | ChAT Activity maximum efficacy % of Control (conc) [1, 5]: <120 % of Control
COC(=O)C1(O)CC2OC1(C)n1c3ccc(C(O)CCCl)cc3c3c4c(c5c6cc(C(O)CCCl)ccc6n2c5c31)C(=O)NC4 (stereo not shown) [Compound 59] | 160 (300 nM) % of Control | 131 (250 nM) % of Control | –
COC(=O)C1(O)CC2OC1(C)n1c3ccc(C#CCN(C)Cc4ccccc4)cc3c3c4c(c5c6cc(Br)ccc6n2c5c31)C(=O)NC4 (stereo not shown) [Compound 62] | 235 (300 nM) % of Control | – | ChAT Activity maximum efficacy % of Control (conc) ([2]; maximum efficacy at 50 nM): 202 (50 nM) % of Control
CCC=Cc1ccc2c(c1)c1c3c(c4c5cc(C=CCC)ccc5n5c4c1n2C1CC(O)(C(=O)OC)C5(C)O1)CNC3=O (stereo not shown) [Compound 68] | 291 (300 nM) % of Control | 290 (250 nM) % of Control | –
COC(=O)C1(O)CC2OC1(C)n1c3ccc(CCO)cc3c3c4c(c5c6cc(CCO)ccc6n2c5c31)C(=O)NC4 (stereo not shown) [Compound 70c] | 186 (300 nM) % of Control | 203 (250 nM) % of Control | –
COC(=O)C1(O)CC2OC1(C)n1c3ccc(CCOC(=O)c4ccncc4)cc3c3c4c(c5c6cc(CCOC(=O)c7ccncc7)ccc6n2c5c31)C(=O)NC4 (stereo not shown) [Compound 71] | 193 (300 nM) % of Control | 152 (250 nM) % of Control | –
COC(=O)C1(O)CC2OC1(C)n1c3ccc(CCN=[N+]=[N-])cc3c3c4c(c5c6cc(CCN=[N+]=[N-])ccc6n2c5c31)C(=O)NC4 (stereo not shown) [Compound 81] | 131 (300 nM) % of Control | – | ChAT Activity maximum efficacy % of Control (conc) [2, 4]: <120 % of Control
COC(=O)C1(O)CC2OC1(C)n1c3ccc(CCSC)cc3c3c4c(c5c6cc(CCSC)ccc6n2c5c31)C(=O)NC4 (stereo not shown) [Compound 87] | 294 (300 nM) % of Control | 262 (250 nM) % of Control | –
CCSCCc1ccc2c(c1)c1c3c(c4c5cc(CCSCC)ccc5n5c4c1n2C1CC(O)(C(=O)OC)C5(C)O1)CNC3=O (stereo not shown) [Compound 88] | 190 (300 nM) % of Control | – | ChAT Activity maximum efficacy % of Control (conc) [2, 4]: <120 % of Control
COC(=O)C1(O)CC2OC1(C)n1c3ccc(CCSc4ccc(O)cc4)cc3c3c4c(c5c6cc(CCSc7ccc(O)cc7)ccc6n2c5c31)C(=O)NC4 (stereo not shown) [Compound 91] | – | – | ChAT Activity maximum efficacy % of Control (conc) [1, 5]: <120 % of Control; ChAT Activity maximum efficacy % of Control (conc) [2, 4]: <120 % of Control
COC(=O)C1(O)CC2OC1(C)n1c3ccc(CCSc4ccccn4)cc3c3c4c(c5c6cc(CCSc7ccccn7)ccc6n2c5c31)C(=O)NC4 (stereo not shown) [Compound 94] | 152 (300 nM) % of Control | 166 (250 nM) % of Control | –
COC(=O)C1(O)CC2OC1(C)n1c3ccc(CCCSC)cc3c3c4c(c5c6cc(CCCSC)ccc6n2c5c31)C(=O)NC4 (stereo not shown) [Compound 95] | 272 (300 nM) % of Control | 239 (250 nM) % of Control | –
COC(=O)C1(O)CC2OC1(C)n1c3ccc(C=Cc4ccccn4)cc3c3c4c(c5c6cc(Br)ccc6n2c5c31)C(=O)NC4 (stereo not shown) [Compound 142] | 223 (300 nM) % of Control | – | –
COC(=O)C1(O)CC2OC1(C)n1c3ccc(CCc4ccccn4)cc3c3c4c(c5c6cc(Br)ccc6n2c5c31)C(=O)NC4 (stereo not shown) [Compound 143] | 264 (300 nM) % of Control | – | –
COC(=O)C1(O)CC2OC1(C)n1c3ccc(C=Cc4ccncc4)cc3c3c4c(c5c6cc(C=Cc7ccncc7)ccc6n2c5c31)C(=O)NC4 (stereo not shown) [Compound 145] | 129 (300 nM) % of Control | – | –
COC(=O)C1(O)CC2OC1(C)n1c3ccc(CCc4ccncc4)cc3c3c4c(c5c6cc(CCc7ccncc7)ccc6n2c5c31)C(=O)NC4 (stereo not shown) [Compound 146] | 153 (300 nM) % of Control | – | –
COC(=O)C1(O)CC2OC1(C)n1c3ccccc3c3c4c(c5c6cc(C=Cc7ncc[nH]7)ccc6n2c5c31)C(=O)NC4 (stereo not shown) [Compound 148] | 206 (300 nM) % of Control | – | –
COCOCc1ccc2c(c1)c1c3c(c4c5ccccc5n5c4c1n2C1CC(O)(C(=O)OC)C5(C)O1)CNC3=O (stereo not shown) [Compound 154] | 177 (300 nM) % of Control | – | –
COCOCc1ccc2c(c1)c1c3c(c4c5cc(COCOC)ccc5n5c4c1n2C1CC(O)(C(=O)OC)C5(C)O1)CNC3=O (stereo not shown) [Compound 155] | 197 (300 nM) % of Control | – | –
CCOCOCc1ccc2c(c1)c1c3c(c4c5cc(COCOCC)ccc5n5c4c1n2C1CC(O)(C(=O)OC)C5(C)O1)CNC3=O (stereo not shown) [Compound 156] | 217 (300 nM) % of Control | – | –
COC(=O)C1(O)CC2OC1(C)n1c3ccccc3c3c4c(c5c6ccccc6n2c5c31)C(=O)NC4 (stereo not shown) [Compound K-252a, K-252a] | – | – | inhibition of protein kinase C (PKC) [3]: strongly inhibits
